Measurements as given in US6413913B1, “Thiono-thiochroman and -dihydrobenzothiophene compounds as herbicidal agents” (BASF Corporation, priority 1999, dated 2002).

Assays:
[1] = tested on: PANDI (Panicum, Fall); experiment: Postemergence herbicidal evaluation; format: in vivo, Panicum dichotomiflorum, Michx.; settings: rated about 2-3 weeks after treatment, scale 0-9, averaged
Experimental: (§1) Seedling plants are grown in jiffy flats for about two weeks. The test compounds are dispersed in 80/20 (v/v) acetone/water mixtures containing 1.0% SUN-IT® II, a methylated seed oil, in sufficient quantities to provide the equivalent of about 0.006 kg/ha to 0.800 kg/ha of active compound when applied to the plants through a spray nozzle operating at 40 psi for a predetermined time. After spraying, the plants are placed on greenhouse benches and are cared for in accordance with conventional greenhouse procedures. Approximately two—three weeks after treatment, the seedling plants are examined and rated according to the rating system set forth below. Where more than one test is involved for a given compound, the data are averaged.

[2] = tested on: PANDI (Panicum, Fall); experiment: Preemergence herbicidal evaluation; format: in vivo, Panicum dichotomiflorum, Michx.; settings: rated about 2-4 weeks after treatment, scale 0-9
Description: (§2) In these tests, seeds of a variety of monocotyledonous and dicotyledonous plants are separately mixed with potting soil and planted on top of approximately one inch of soil in separate pint cups. After planting, the cups are sprayed with the selected aqueous acetone solution containing test compound in sufficient quantity to provide the equivalent of about 0.0125 to 0.800 kg per hectare of test compound per cup. The treated cups are then placed on greenhouse benches, watered and cared for in accordance with conventional greenhouse procedures. Approximately two—four weeks after treatment, the tests are terminated and each cup is examined and rated according to the rating system provided in Example 6.

[3] = tested on: AMBEL (Ragweed, Common); experiment: Postemergence herbicidal evaluation; format: in vivo, Ambrosia artemisifolia, L.; settings: rated about 2-3 weeks after treatment, scale 0-9, averaged
Experimental: as §1

[4] = tested on: ECHCG (Barnyardgrass); experiment: Postemergence herbicidal evaluation; format: in vivo, Echinochloa crus-galli, (L.) Beau; settings: rated about 2-3 weeks after treatment, scale 0-9, averaged
Experimental: as §1

[5] = tested on: ECHCG (Barnyardgrass); experiment: Preemergence herbicidal evaluation; format: in vivo, Echinochloa crus-galli, (L.) Beau; settings: rated about 2-4 weeks after treatment, scale 0-9
Description: as §2

[6] = tested on: ABUTH (Velvetleaf); experiment: Preemergence herbicidal evaluation; format: in vivo, Abutilon theophrasti, Medic.; settings: rated about 2-4 weeks after treatment, scale 0-9
Description: as §2

[7] = tested on: SETVI (Foxtail, Green); experiment: Postemergence herbicidal evaluation; format: in vivo, Setaria viridis, (L.) Beau; settings: rated about 2-3 weeks after treatment, scale 0-9, averaged
Experimental: as §1

[8] = tested on: SETVI (Foxtail, Green); experiment: Preemergence herbicidal evaluation; format: in vivo, Setaria viridis, (L.) Beau; settings: rated about 2-4 weeks after treatment, scale 0-9
Description: as §2

[9] = tested on: ABUTH (Velvetleaf); experiment: Postemergence herbicidal evaluation; format: in vivo, Abutilon theophrasti, Medic.; settings: rated about 2-3 weeks after treatment, scale 0-9, averaged
Experimental: as §1

[10] = tested on: ZEAMX (Corn, Field); experiment: Preemergence herbicidal evaluation (crop); format: in vivo, Zea mays, L.
Description: as §2

[11] = tested on: IPOHE (Morningglory, Ivyleaf); experiment: Preemergence herbicidal evaluation; format: in vivo, Ipomoea hederacea, (L) Jacq.; settings: rated about 2-4 weeks after treatment, scale 0-9
Description: as §2

[12] = tested on: ZEAMX (Corn, Field); experiment: Postemergence herbicidal evaluation (crop); format: in vivo, Zea mays, L.; settings: rated about 2-3 weeks after treatment, scale 0-9, averaged
Experimental: as §1

[13] = tested on: IPOHE (Morningglory, Ivyleaf); experiment: Postemergence herbicidal evaluation; format: in vivo, Ipomoea hederacea, (L) Jacq.; settings: rated about 2-3 weeks after treatment, scale 0-9, averaged
Experimental: as §1

[14] = tested on: AMBEL (Ragweed, Common); experiment: Preemergence herbicidal evaluation; format: in vivo, Ambrosia artemisifolia, L.; settings: rated about 2-4 weeks after treatment, scale 0-9
Description: as §2

[15] = preemergence, 0.050 kg/ha, rated about 2-4 weeks after treatment, scale 0-9
[16] = preemergence, 0.100 kg/ha, rated about 2-4 weeks after treatment, scale 0-9

SMILES | Herbicide rating PANDI ([1]; 0.050 kg/ha) | Herbicide rating PANDI ([1]; 0.100 kg/ha) | Herbicide rating PANDI ([2]; 0.050 kg/ha) | Herbicide rating PANDI ([2]; 0.100 kg/ha) | Herbicide rating AMBEL ([3]; 0.050 kg/ha) | Herbicide rating AMBEL ([3]; 0.100 kg/ha) | Herbicide rating ECHCG ([4]; 0.050 kg/ha) | Herbicide rating ECHCG ([4]; 0.100 kg/ha) | Herbicide rating ECHCG ([5]; 0.050 kg/ha) | Herbicide rating ECHCG ([5]; 0.100 kg/ha) | Herbicide rating ABUTH ([6]; 0.050 kg/ha) | Herbicide rating ABUTH ([6]; 0.100 kg/ha) | Herbicide rating SETVI ([7]; 0.050 kg/ha) | Herbicide rating SETVI ([7]; 0.100 kg/ha) | Herbicide rating SETVI ([8]; 0.050 kg/ha) | Herbicide rating SETVI ([8]; 0.100 kg/ha) | Herbicide rating ABUTH ([9]; 0.050 kg/ha) | Herbicide rating ABUTH ([9]; 0.100 kg/ha) | Herbicide rating AMBEL ([14]; 0.050 kg/ha) | Herbicide rating AMBEL ([14]; 0.100 kg/ha) | also measured
CCn1ncc(C(=S)c2ccc3c(c2C)/C(=N/OC)CCS3(=O)=O)c1O [Example 1, 6-[(1-Ethyl-5-hydroxypyrazol-4-yl)thicarbonyl]-5-methylthiochroman-4-one (E) -O-Methyloxime, 1,1-Dioxide] | 6.3 | 6.5 | 8.0 | 8.5 | 8.2 | 8.4 | 8.0 | 7.8 | 5.8 | 8.3 | 7.3 | 9.0 | 8.5 | 9.0 | 6.6 | 8.4 | 7.6 | 8.0 | 8.5 | 8.8 | Herbicide rating ZEAMX (crop injury, corn) [10, 15]: 0.0; Herbicide rating ZEAMX (crop injury, corn) [10, 16]: 0.8; Herbicide rating IPOHE ([11]; 0.050 kg/ha): 2.5; Herbicide rating IPOHE ([11]; 0.100 kg/ha): 6.0; Herbicide rating ZEAMX (crop injury, corn) ([12]; 0.050 kg/ha): 1.2; Herbicide rating ZEAMX (crop injury, corn) ([12]; 0.100 kg/ha): 3.0; Herbicide rating IPOHE ([13]; 0.050 kg/ha): 2.0; Herbicide rating IPOHE ([13]; 0.100 kg/ha): 3.0
CCn1ncc(C(=S)c2cc(C)c3c(c2C)C(C)(C)CCS3(=O)=O)c1O [Example 2] | 5.0 | 4.0 | 5.0 | 7.0 | 6.0 | 9.0 | 5.0 | 9.0 | 0.0 | 3.0 | 3.0 | 9.0 | 9.0 | 9.0 | 4.0 | 5.0 | 9.0 | 9.0 | 2.0 | 3.0 | Herbicide rating ZEAMX (crop injury, corn) ([10]; in vivo): 0.0; Herbicide rating IPOHE ([11]; 0.050 kg/ha): 0.0; Herbicide rating IPOHE ([11]; 0.100 kg/ha): 0.0; Herbicide rating IPOHE ([13]; 0.050 kg/ha): 2.0; Herbicide rating IPOHE ([13]; 0.100 kg/ha): 4.0
Cc1c(C(=S)c2cnn(C)c2O)ccc2c1C(C)(C)CS2(=O)=O [Example 3] | 7.0 | 8.0 | 6.5 | 8.0 | 9.0 | 8.0 | 7.0 | 9.0 | 7.0 | 8.5 | 8.0 | 9.0 | 8.0 | 8.0 | 5.0 | 7.0 | 9.0 | 8.0 | 5.5 | 7.0 | Herbicide rating ZEAMX (crop injury, corn) ([10]; in vivo): 0.0; Herbicide rating IPOHE ([11]; 0.050 kg/ha): 2.0; Herbicide rating IPOHE ([11]; 0.100 kg/ha): 2.0
CCn1ncc(C(=S)c2ccc3c(c2C)C(C)(C)CS3(=O)=O)c1O [Example 4] | 3.0 | 9.0 | 2.0 | 7.0 | 8.0 | 8.0 | 8.0 | 8.0 | 2.0 | 9.0 | 6.0 | 9.0 | 4.0 | 7.0 | 3.0 | 3.0 | 4.0 | 7.0 | 2.0 | 9.0 | Herbicide rating ZEAMX (crop injury, corn) ([10]; in vivo): 0.0; Herbicide rating IPOHE ([11]; 0.050 kg/ha): 1.0; Herbicide rating IPOHE ([11]; 0.100 kg/ha): 1.0; Herbicide rating IPOHE ([13]; 0.050 kg/ha): 4.0; Herbicide rating IPOHE ([13]; 0.100 kg/ha): 4.0
CCCS(=O)(=O)Oc1c(C(=S)c2ccc3c(c2C)/C(=N/OC)CCS3(=O)=O)cnn1CC [Example 5] | – | – | 7.0 | 7.0 | – | – | – | – | 6.0 | 6.0 | 9.0 | 9.0 | – | – | 6.0 | 6.0 | – | – | 7.0 | 9.0 | Herbicide rating ZEAMX (crop injury, corn) [10, 15]: 0.0; Herbicide rating ZEAMX (crop injury, corn) [10, 16]: 0.0; Herbicide rating ZEAMX (crop injury, corn) ([12]; 0.050 kg/ha): 0.0; Herbicide rating ZEAMX (crop injury, corn) ([12]; 0.100 kg/ha): 3.0
